Reference: patent US10562897B2, “Substituted 3,4-dihydro-2H-pyrido[1,2-a]pyrazine-1,6-diones as gamma secretase modulators” (Janssen Pharmaceutica NV, priority 2014, dated 2020)
Where a name gives a salt, the structure may show the parent alone. Read-outs that look alike come from different tables or passages of the source.

Legend:
Aβ42 = test: In vivo efficacy: brain level of soluble Aβ42, non-transgenic rodents, single oral dose 30 mg/kg, 4 h, MSD electrochemiluminescence, untreated control = 100; design: species or system mouse; conditions: Mus musculus, read-out: Aβ42 (% vs Ctrl) _Mean
Excerpt: (§1) To determine whether acute administration of an Aβ42 lowering agent would reduce Aβ42 levels in vivo, non-transgenic rodents, e.g. mice or rats were used. Animals treated with the Aβ42 lowering agent were examined and compared to those untreated or treated with vehicle and brain levels of soluble Aβ42, Aβ40, Aβ38, and Aβ37 were quantitated by Meso Scale Discovery's (MSD) electrochemiluminescence detection technology. Treatment periods varied from hours (h) to days and were adjusted based on the results of the Aβ42 lowering once a time course of onset of effect could be established.
(§2) A typical protocol for measuring Aβ42 lowering in vivo is shown but it is only one of many variations that could be used to optimize the levels of detectable Aβ. For example, Aβ42 lowering compounds were formulated in 20% of Captisol® (a sulfobutyl ether of β-cyclodextrin) in water or 20% hydroxypropyl β cyclodextrin. The Aβ42 lowering agents were administered as a single oral dose or by any acceptable route of administration to overnight fasted animals. After 4 h, the animals were sacrificed and Aβ42 levels were analysed.
(§3) Blood was collected by decapitation and exsanguinations in EDTA-treated collection tubes. Blood was centrifuged at 1900 g for 10 minutes (min) at 4° C. and the plasma recovered and flash frozen for later analysis. The brain was removed from the cranium and hindbrain. The cerebellum was removed and the left and right hemisphere were separated. The left hemisphere was stored at −18° C. for quantitative analysis of test compound levels. The right hemisphere was rinsed with phosphate-buffered saline (PBS) buffer and immediately frozen on dry ice and stored at −80° C. until homogenization for biochemical assays.
(§4) Mouse brains from non-transgenic animals were resuspended in 8 volumes of 0.4% DEA (diethylamine)/50 mM NaCl containing protease inhibitors (Roche-11873580001 or 04693159001) per gram of tissue, e.g. for 0.158 g brain, add 1.264 ml of 0.4% DEA. All samples were homogenized in the FastPrep-24 system (MP Biomedicals) using lysing matrix D (MPBio #6913-100) at 6 m/s for 20 seconds. Homogenates were centrifuged at 20800×g for 5 min and supernatants collected. Supernatants were centrifuged at 221.300×g for 50 min. The resulting high speed supernatants were then transferred to fresh eppendorf tubes. Nine parts of supernatant were neutralized with 1 part 0.5 M Tris-HCl pH 6.8 and used to quantify Aβ.
(§5) To quantify the amount of Aβ42, Aβ40, Aβ38, and Aβ37 in the soluble fraction of the brain homogenates, simultaneous specific detection of Aβ42, Aβ40, Aβ38, and Aβ37 was performed using MSD's electro-chemiluminescence multiplex detection technology. In this assay purified monoclonal antibodies specific for Abeta37 (JRD/Aβ37/3), Abeta38 (J&JPRD/Aβ38/5), Abeta40 (JRF/cAβ40/28), and Abeta42 (JRF/cAβ42/26) were coated on MSD 4-plex plates. Briefly, the standards (a dilution of synthetic Aβ42, Aβ40, Aβ38, and Aβ37) were prepared in 1.5 ml Eppendorf tube in Ultraculture, with final concentrations ranging from 10000 to 0.3 pg/m. The samples and standards were co-incubated with Sulfo-tag labelled JRF/rAß/2 antibody to the N-terminus of Aβ as detector antibody. 50 μl of conjugate/sample or conjugate/standards mixtures were then added to the antibody-coated plate. The plate was allowed to incubate overnight at 4° C. in order to allow formation of the antibody-amyloid complex. Following this incubation and subsequent wash steps the assay was finished by adding read buffer according to the manufacturer's instructions (Meso Scale Discovery, Gaitherburg, Md.).
(§6) The SULFO-TAG emits light upon electrochemical stimulation initiated at the electrode. MSD Sector instrument SI6000 was used for signal read-out.
In this model a Aß42 lowering compared to untreated animals would be advantageous, in particular a Aß42 lowering with at least 10%, more in particular a Aß42 lowering with at least 20%. […]

Aβ38 = test: In vivo efficacy: brain level of soluble Aβ38, non-transgenic rodents, single oral dose 30 mg/kg, 4 h, MSD electrochemiluminescence, untreated control = 100; design: species or system mouse; conditions: Mus musculus, read-out: Aβ38 (% vs Ctrl) _Mean
Excerpt: To determine whether acute administration of an Aβ38 increasing agents would increase Aβ38 levels in vivo, non-transgenic rodents, e.g. mice or rats were used. Animals treated with the Aβ38 increasing agents were examined and compared to those untreated or treated with vehicle and brain levels of soluble Aβ42, Aβ40, Aβ38, and Aβ37 were quantitated by MSD electrochemiluminescence detection technology.
Treatment periods varied from hours (h) to days and were adjusted based on the results of the Aβ38 increase once a time course of onset of effect could be established.
as §2, with “measuring Aβ38 increase” for “measuring Aβ42 lowering”, “example, Aβ38 increasing agents” for “example, Aβ42 lowering compounds”, “The Aβ38 increasing” for “The Aβ42 lowering”, “and Aβ38” for “and Aβ42”
as §3, §4
as §5, with “[…].” for “pg/m.”
as §6
In this model a Aß38 increase compared to untreated animals would be advantageous, in particular a Aß38 increase with at least 10%, more in particular a Aß38 increase with at least 20%. […]

Aβ40 = test: In vivo efficacy: brain level of soluble Aβ40, non-transgenic rodents, single oral dose 30 mg/kg, 4 h, MSD electrochemiluminescence, untreated control = 100; design: species or system mouse; conditions: Mus musculus, read-out: Aβ40 (% vs Ctrl) _Mean
Excerpt: as §1, §2, §3, §4, §5
The SULFO-TAG emits light upon electrochemical stimulation initiated at the electrode. MSD Sector instrument SI6000 was used for signal read-out. […]

Structure (SMILES)	melting point [°C]	also measured
Cc1cn(-c2ccc3n(c2=O)C[C@@H](C)N(Cc2coc4ccc(OC(F)(F)F)cc24)C3=O)cn1 [Compound 83]		response vs control in vivo at 30 mg/kg (Aβ42; sc, 30 mpk sc): 40%; response vs control in vivo at 30 mg/kg (Aβ38; sc, 30 mpk sc): 166%; response vs control in vivo at 30 mg/kg (Aβ40; sc, 30 mpk sc (footnote *)): 41%
Cc1cn(-c2ccc3n(c2=O)C[C@@H](C)N(CCc2cc(OC4CC4)cc(C(F)(F)F)c2)C3=O)cn1 (as salt: HCl) [Compound 40]	102	
Cc1cn(-c2ccc3n(c2=O)CC(C)N(C(C)c2coc4ccc(Cl)cc24)C3=O)cn1 (single isomer, unassigned) [Compound 57]		response vs control in vivo at 30 mg/kg (Aβ42; sc, 30 mpk sc): 100%; response vs control in vivo at 30 mg/kg (Aβ38; sc, 30 mpk sc): 134%; response vs control in vivo at 30 mg/kg (Aβ40; sc, 30 mpk sc (footnote *)): 105%
Cc1cn(-c2ccc3n(c2=O)CCN(Cc2coc4c(F)cc(Cl)cc24)C3=O)cn1 [Compound 56]	232	
Cc1cn(-c2ccc3n(c2=O)C[C@@H](C)N(Cc2cc(C(C)C)nn2CC(F)(F)F)C3=O)cn1 [Compound 19]	144	
Cc1cn(-c2ccc3n(c2=O)C[C@@H](C)N(CC2(c4cc(OC5CC5)cc(C(F)(F)F)c4)CC2)C3=O)cn1 (as salt: HCl) [Compound 53]	197	
Cc1cn(-c2ccc3n(c2=O)CC(C)N(C(C)c2coc4ccc(C(F)(F)F)cc24)C3=O)cn1 (centres unmarked) [Compound 79]		response vs control in vivo at 30 mg/kg (Aβ42; sc, 30 mpk sc): 54%; response vs control in vivo at 30 mg/kg (Aβ38; sc, 30 mpk sc): 175%; response vs control in vivo at 30 mg/kg (Aβ40; sc, 30 mpk sc (footnote *)): 62%
Cc1cn(-c2ccc3n(c2=O)CC(C)N(CCN2CCCC(C(F)(F)F)C2)C3=O)cn1 (centres unmarked) (as salt: HCl) [Compound 43]	138	
Cc1cn(-c2ccc3n(c2=O)CC(C)N(Cc2ccc(C)c(N4CC5CC5C4)c2)C3=O)cn1 (centres unmarked) [Compound 30]		response vs control in vivo at 30 mg/kg (Aβ42; po, dose 30 mg/kg oral dosing): 118%; response vs control in vivo at 30 mg/kg (Aβ38; po, dose 30 mg/kg oral dosing): 121%; response vs control in vivo at 30 mg/kg (Aβ40; po, dose 30 mg/kg oral dosing): 126%
Cc1cn(-c2ccc3n(c2=O)C[C@@H](C)N(Cc2cnn4ccc(C(F)(F)F)cc24)C3=O)cn1 [Compound 9]	170	
Cc1cn(-c2ccc3n(c2=O)CCN(C(C)c2coc4cc(F)c(Cl)cc24)C3=O)cn1 (single isomer, unassigned) [Compound 60]	234	
Cc1cn(-c2ccc3n(c2=O)C[C@@H](C)N(Cc2csc(CC(F)(F)F)c2)C3=O)cn1 [Compound 29]	110	
Cc1cn(-c2ccc3n(c2=O)CC(C)N(C(C)c2ccc(OC(F)(F)F)c(O)c2)C3=O)cn1 (centres unmarked) (as salt: HCl) [Compound 52]	223	
Cc1cn(-c2ccc3n(c2=O)C[C@@H](C)N(Cc2noc4ccc(C(F)(F)F)cc24)C3=O)cn1 [Compound 101]	140	
Cc1cn(-c2ccc3n(c2=O)CC(C)N(C(C)c2cc(OC4CC4)cc(C(F)(F)F)c2)C3=O)cn1 (centres unmarked) (as salt: HCl) [Compound 48]	122	
Cc1cn(-c2ccc3n(c2=O)C[C@@H](C)N(Cc2coc4c(Cl)c(Cl)ccc24)C3=O)cn1 [Compound 97]	227	
Cc1cn(-c2ccc3n(c2=O)CC(C)N(Cc2ccc(C)c(N4CC5CC5C4)c2)C3=O)cn1 (centres unmarked) (as salt: HCl) [Compound 30]	122	
Cc1cn(-c2ccc3n(c2=O)C[C@@H](C)N(CC2(c4cc(OC5CC5)cc(C(F)(F)F)c4)CC2)C3=O)cn1 [Compound 53]		response vs control in vivo at 30 mg/kg (Aβ42; po, dose 30 mg/kg oral dosing): 120%; response vs control in vivo at 30 mg/kg (Aβ38; po, dose 30 mg/kg oral dosing): 124%; response vs control in vivo at 30 mg/kg (Aβ40; po, dose 30 mg/kg oral dosing): 121%
Cc1cn(-c2ccc3n(c2=O)C[C@@H](C)N(Cc2coc4c(C(F)(F)F)cccc24)C3=O)cn1 [Compound 71]	225	
Cc1cn(-c2ccc3n(c2=O)C[C@@H](C)N(Cc2coc4c(F)cc(Cl)cc24)C3=O)cn1 [Compound 62]		response vs control in vivo at 30 mg/kg (Aβ42; po, dose 30 mg/kg oral dosing): 82%; response vs control in vivo at 30 mg/kg (Aβ38; po, dose 30 mg/kg oral dosing): 113%; response vs control in vivo at 30 mg/kg (Aβ40; po, dose 30 mg/kg oral dosing): 87%
Cc1cn(-c2ccc3n(c2=O)CC(C)N(C(C)c2coc4cc(F)c(Cl)cc24)C3=O)cn1 (single isomer, unassigned) [Compound 65]		response vs control in vivo at 30 mg/kg (Aβ42; po, dose 30 mg/kg oral dosing): 58%; response vs control in vivo at 30 mg/kg (Aβ38; po, dose 30 mg/kg oral dosing): 165%; response vs control in vivo at 30 mg/kg (Aβ40; po, dose 30 mg/kg oral dosing): 52%
Cc1cn(-c2ccc3n(c2=O)C[C@@H](C)N(Cc2csc(C(F)(F)F)c2)C3=O)cn1 [Compound 28]	162	
Cc1cn(-c2ccc3n(c2=O)CCN(C(C)c2coc4cc(C(F)(F)F)ccc24)C3=O)cn1 (single isomer, unassigned) [Compound 68]	204	
Cc1cn(-c2ccc3n(c2=O)CC(C)N(C(C)c2coc4c(F)cc(Cl)cc24)C3=O)cn1 (centres unmarked) [Compound 96]	201	
Cc1cn(-c2ccc3n(c2=O)CCN(CC2Cc4c(cccc4C(F)(F)F)O2)C3=O)cn1 (centres unmarked) [Compound 44]	128	
Cc1cn(-c2ccc3n(c2=O)C[C@@H](C)N(Cc2cc(OC4CC4)cc(C(F)(F)F)c2)C3=O)cn1 (as salt: HCl) [Compound 33]	149	
Cc1cn(-c2ccc3n(c2=O)CC(C)N(C(C)c2ccc(OC(F)(F)F)c(O)c2)C3=O)cn1 (centres unmarked) (as salt: HCl) [Compound 51]	212	
Cc1cn(-c2ccc3n(c2=O)CC(C)N(Cc2noc4ccc(Cl)cc24)C3=O)cn1 (centres unmarked) [Compound 14]	147	
Cc1cn(-c2ccc3n(c2=O)CCN(C(C)c2coc4cc(C(F)(F)F)ccc24)C3=O)cn1 (single isomer, unassigned) [Compound 67]	200	
Cc1cn(-c2ccc3n(c2=O)C[C@@H](C)N(Cc2cc4cc(C(F)(F)F)ccc4o2)C3=O)cn1 [Compound 26]	164	
